Test results as given in patent publication US9492494B2, “Oral composition” (Kyowa Hakko Bio Co., Ltd., priority 2007, dated 2016).

Test system: soluble collagen and insoluble collagen of abdominal skin
Assay: Oral administration test in rats: L-hydroxyproline in soluble and insoluble collagen of abdominal skin (Experimental Example 2)
Assay type: in vivo, F344/DuCrlCrlj rats
Conditions: oral 10 mL/kg once a day for 12 days, abdominal skin on 13th day, soluble plus insoluble collagen, mean±standard deviation, 4 rats per group
Description: To the rats of the administration groups 7-11 were each administered with compositions 7-11 obtained by dissolving collagen peptide and L-hydroxyproline in purified water to the contents shown in Table 3 at 10 mL/kg. The rats of the control administration group 12 were administered with purified water at 10 mL/kg.
On the 13th day from the start of the administration test, the abdomen was shaved under anesthesia by intraperitoneal administration of pentobarbital, and the abdominal skin was collected. […] The values are shown by mean±standard deviation.

With `O=C(O)[C@@H]1C[C@@H](O)CN1` [composition 11, trans-4-hydroxy-L-proline] the “L-hydroxyproline amount/wet weight of skin” value was 10.66 ± 1.69 mg/g.
